Entries after “also recorded” stand apart in the source; their conditions may differ.
How the values were obtained:
Format in all cases: cell-based, mouse
[1] = test system: CD8 T cells; test: CD8 T cell activation with AICAR treatment (CD25 flow cytometry, IL-2 ELISA); conditions: CrT-WT and CrT-KO CD8 T cells; AICAR 250 μM; anti-CD3 16 hours
Method: CD8 T cells were cultured in vitro in standard T cell culture medium comprising RPMI 1640 (Cat #10040, Corning), 10% FBS (Cat #F2442, Sigma), 1% Penicillin-Streptomycin-Glutamine (Cat #10378016, Gibco), 1% MEM Non-Essential Amino Acids Solution (Cat #11140050, Gibco), 1% HEPES (Cat #15630080, Gibco), 1% Sodium Pyruvate (100 mM) (Cat #11360070, Gibco), and 0.05 mM β -Mercaptoethanol (Cat #M3148, Sigma). Unless otherwise indicated, cells were seeded at 0.5×10^6 cells per well in 24-well plates and stimulated with plate-bound anti-CD3 (5 μg/ml) (clone 145-2C11), for up to 5 days. At indicated time point(s), cells were collected and analyzed for CrT mRNA expression using qPCR, for cell proliferation through cell counting, for viability through Annexin V/7-AAD staining followed by flow cytometry analysis, for surface activation marker (CD25) expression through surface staining followed by flow cytometry analysis, for effector molecule (Granzyme B, IL-2, and IFN-γ) production through intracellular staining followed by flow cytometry analysis, and for cytokine (IL-2 and IFN-γ) secretion through collecting cell culture supernatants followed by ELISA analysis. CrT protein expression and TCR signaling events were analyzed using western blot analysis. […]

[2] = test system: AMPK; test: Western blot of AMPK and TCR signaling events in CD8 T cells with AICAR treatment
Method: In some other experiments, AICAR (5-aminoimidazole-4-carboxamide 1-β-D-ribofuranoside, Cat #A9978, Sigma-Aldrich), an AMPK activator, was reconstituted in DMSO and used to pretreat T cells for 30 minutes, at the concentration of 2 mM followed by 20 minutes of anti-CD3 stimulation for western blot analysis of TCR signaling events, or at the concentration of 250 μM followed by 16 hours of anti-CD3 stimulation for flow cytometry analysis of CD25 expression and ELISA analysis of IL-2 production.
Total protein was extracted using RIPA lysis buffer (Thermo Fisher Scientific) supplemented with a phosphatase inhibitor cocktail (Sigma-Aldrich) and a protease inhibitor cocktail (Roche) following the manufacturers' instructions. Nuclear protein was extracted using a Nuclear Protein Extraction Kit (Thermo Fisher Scientific) following the manufacturer's instructions, or using homemade reagents (10 mM HEPES pH 7.9, 10 mM KCl, 0.34 M sucrose, 10% glycerol, 1 mM DTT, 0.1% Triton X-100, 1.5 mM MgCl2 and protease inhibitor cocktail) following a previously established protocol (Ma et al., 2019). Protein concentration was measured by a BCA assay (Cat #23228 and Cat #1859078, Thermo Fisher Scientific). Equal amounts of protein were resolved on a 12% SDS-PAGE gel and then transferred to a PVDF membrane by electrophoresis. The following anti-mouse antibodies were purchased from Cell Signaling Technology and used to blot for the protein of interest: p-Zap-70 (cat #2705S; clone 99F2); Zap-70 (cat #2717S; clone Y319); p-Lck (cat #2751S; clone Y505); Lck (cat #2752S); p-c-Jun (cat #9261S; clone S63); NFAT (cat #4389S); NF-κB p65 (cat #8242P; clone D14E12); AMPK (cat #5831T; clone D5A2); p-AMPK (cat #2535T; clone 40H9), secondary anti-mouse (cat #7076P2), and secondary anti-rabbit (cat #7074P2). Anti-mouse CrT (SLC6A8) (cat #PA5-37060) was purchased from Thermo Fisher Scientific. β-Actin (Santa Cruz Biotechnology Inc.; cat #sc-69879; clone AC-15) was used as an internal control for total protein extracts, while Lamin A (Santa Cruz Biotechnology; cat #sc-71481; clone 4A58) was used as an internal control for nuclear protein extracts. Signals were visualized with autoradiography using an ECL system (Cat #RPN2232, Thermo Fisher Scientific). Data analysis was performed using ImageJ software (NIH).

[3] = test system: CD8 T cells; test: CD8 T cell activation in vitro with ATP supplementation (CD25 flow cytometry, IFN-γ ELISA); conditions: ATP 100 μM, anti-CD3
Method: CD8 T cells were cultured in vitro in standard T cell culture medium comprising RPMI 1640 (Cat #10040, Corning), 10% FBS (Cat #F2442, Sigma), 1% Penicillin-Streptomycin-Glutamine (Cat #10378016, Gibco), 1% MEM Non-Essential Amino Acids Solution (Cat #11140050, Gibco), 1% HEPES (Cat #15630080, Gibco), 1% Sodium Pyruvate (100 mM) (Cat #11360070, Gibco), and 0.05 mM β -Mercaptoethanol (Cat #M3148, Sigma). Unless otherwise indicated, cells were seeded at 0.5×10^6 cells per well in 24-well plates and stimulated with plate-bound anti-CD3 (5 μg/ml) (clone 145-2C11), for up to 5 days. At indicated time point(s), cells were collected and analyzed for CrT mRNA expression using qPCR, for cell proliferation through cell counting, for viability through Annexin V/7-AAD staining followed by flow cytometry analysis, for surface activation marker (CD25) expression through surface staining followed by flow cytometry analysis, for effector molecule (Granzyme B, IL-2, and IFN-γ) production through intracellular staining followed by flow cytometry analysis, and for cytokine (IL-2 and IFN-γ) secretion through collecting cell culture supernatants followed by ELISA analysis. CrT protein expression and TCR signaling events were analyzed using western blot analysis.
(§1) In some experiments, ATP (adenosine-5′-triphosphate disodium salt hydrate, Cat #A6419, Sigma-Aldrich) was reconstituted in sterile PBS and added to T cell culture (100 μM) for two to three days along with anti-CD3 stimulation, followed by analyzing T cell surface activation marker (CD25) expression using flow cytometry, and analyzing effector cytokine (IFN-γ) secretion using ELISA. In some experiments, T cells were stimulated with anti-CD3 for 48 hours, rested at 4° C. for 2 hours, then restimulated with anti-CD3 for 30 minutes in the presence or absence of ATP supplementation (100 μM) followed by analyzing TCR signaling events using western blot.
ELISA was performed for the detection of cytokines according to a BD Biosciences protocol. […] The absorbance was measured at 450 nm using an Infinite M1000 microplate reader (Tecan).

[4] = test system: TCR signaling; test: Western blot of TCR signaling events in CrT-KO CD8 T cells with ATP supplementation; conditions: ATP 100 μM, restimulated with anti-CD3 30 minutes
Method: as §1
Total protein was extracted using RIPA lysis buffer (Thermo Fisher Scientific) supplemented with a phosphatase inhibitor cocktail (Sigma-Aldrich) and a protease inhibitor cocktail (Roche) following the manufacturers' instructions. Nuclear protein was extracted using a Nuclear Protein Extraction Kit (Thermo Fisher Scientific) following the manufacturer's instructions, or using homemade reagents (10 mM HEPES pH 7.9, 10 mM KCl, 0.34 M sucrose, 10% glycerol, 1 mM DTT, 0.1% Triton X-100, 1.5 mM MgCl2 and protease inhibitor cocktail) following a previously established protocol (Ma et al., 2019). Protein concentration was measured by a BCA assay (Cat #23228 and Cat #1859078, Thermo Fisher Scientific). […]

Row | Structure (SMILES) | cell surface activation marker expression (CD25) [1] | effector cytokine production (IL-2) [1] | activation of NFAT ([2]; CD8 T cells, AICAR 2 mM) | activation of Zap-70 ([2]; CD8 T cells, AICAR 2 mM) | AP-1 transcription factor activation (c-Jun subunit) ([2]; CrT-WT and CrT-KO CD8 T cells, AICAR 2 mM) | AMPK activation ([2]; CrT-WT and CrT-KO CD8 T cells, AICAR 2 mM pretreatment 30 minutes) | effector cytokine IFN-γ production ([3]; CrT-KO CD8 T cells, day 3) | surface activation marker CD25 expression ([3]; CrT-KO CD8 T cells, day 3) | activation of CD8 T cells (CD25) ([3]; CrT-WT CD8 T cells, 48 hours, disodium salt hydrate) | TCR signaling deficiencies [4]
1 | NC(=O)c1ncn([C@@H]2O[C@H](CO)[C@@H](O)[C@H]2O)c1N [AICAR, 5-aminoimidazole-4-carboxamide 1-β-D-ribofuranoside] | significant reduction | significant reduction | not affected | not affected | significant reduction | markedly activated AMPK |  |  |  | 
2 | Nc1ncnc2c1ncn2[C@@H]1O[C@H](COP(=O)([O-])OP(=O)([O-])OP(=O)(O)O)[C@@H](O)[C@H]1O.O.[Na+].[Na+] [ATP, adenosine-5′-triphosphate disodium salt hydrate] |  |  |  |  |  |  | enhanced production | increased expression | further increased the activation; also recorded: further enhanced the activation | effectively rescued

Reference: US20220288001A1, “CREATINE FOR IMMUNOTHERAPY” (The Regents of the University of California, priority 2019, published 2022)
